This note sets out measurements from paper PMC2806030, “Inhibition of mammalian S6 kinase by resveratrol suppresses autophagy” (Aging (Albany NY), 2009).

Assay [1] concerns the target T1, Pim-1 (Homo sapiens, UniProt P11309).
T1 construct: gene PIM1
Nature of the assay: in vitro kinase screen (Upstate KinaseProfiler), single dose […]. The class given is biochemical.

Another assay deals with T2, Pim-2 (Homo sapiens, UniProt Q9P1W9).
T2 construct: gene PIM2
The description is as above. The class given is biochemical.

A further assay concerns the target NLK (Homo sapiens, UniProt Q9UBE8). Described as above. The class given is biochemical.
For the next assay, the target named is Flt1(h) (Homo sapiens, UniProt P17948). Nature of the assay: biochemical. The arrangement: Upstate KinaseProfiler in vitro kinase activity assay, per cent of DMSO control. Particulars: read-out: Activity (% of Control). The essentials: (§1)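 Profiling done with Upstate KinaseProfiler service across 100 kinases, resveratrol tested at 20 μM; activity expressed relative to control.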

The next assay addresses T3, IRR(h) (Homo sapiens, UniProt P14616).
T3 construct: gene INSRR
In words: biochemical. The arrangement: Upstate KinaseProfiler in vitro kinase activity assay, per cent of DMSO control. Particulars: read-out: Activity (% of Control). An outline of the steps: as §1

The next assay concerns the target T4, JNK1α1(h) (Homo sapiens, UniProt P45983).
T4 construct: gene MAPK8; isoform alpha1
Nature of the assay: biochemical. More on the design: Upstate KinaseProfiler in vitro kinase activity assay, per cent of DMSO control. Particulars: read-out: Activity (% of Control). The essentials: as §1

For another assay, the target named is T5, MST1(h) (Homo sapiens, UniProt Q13043).
T5 construct: gene STK4
In words: biochemical. The arrangement: Upstate KinaseProfiler in vitro kinase activity assay, per cent of DMSO control. Particulars: read-out: Activity (% of Control). The essentials:
as §1

The next assay deals with PAK4(h) (Homo sapiens, UniProt O96013). In words: biochemical. More on the design: Upstate KinaseProfiler in vitro kinase activity assay, per cent of DMSO control. Particulars: read-out: Activity (% of Control). An outline of the steps: as §1
In the next assay the target is T6, PDK1(h) (Homo sapiens, UniProt O15530).
T6 construct: gene PDPK1
In words: biochemical. The arrangement: Upstate KinaseProfiler in vitro kinase activity assay, per cent of DMSO control. Particulars: read-out: Activity (% of Control). An outline of the steps: as §1

The target of assay [2] is T1, Pim-1. Nature of the assay: biochemical. More on the design: Upstate KinaseProfiler in vitro kinase activity assay, per cent of DMSO control. Particulars: read-out: Activity (% of Control). The essentials: as §1
The next assay deals with T7, Snk(h) (Homo sapiens, UniProt Q9NYY3).
T7 construct: gene PLK2
In words: biochemical. More on the design: Upstate KinaseProfiler in vitro kinase activity assay, per cent of DMSO control. Particulars: read-out: Activity (% of Control). The essentials:
as §1

T1 sequence (P11309 whole entry): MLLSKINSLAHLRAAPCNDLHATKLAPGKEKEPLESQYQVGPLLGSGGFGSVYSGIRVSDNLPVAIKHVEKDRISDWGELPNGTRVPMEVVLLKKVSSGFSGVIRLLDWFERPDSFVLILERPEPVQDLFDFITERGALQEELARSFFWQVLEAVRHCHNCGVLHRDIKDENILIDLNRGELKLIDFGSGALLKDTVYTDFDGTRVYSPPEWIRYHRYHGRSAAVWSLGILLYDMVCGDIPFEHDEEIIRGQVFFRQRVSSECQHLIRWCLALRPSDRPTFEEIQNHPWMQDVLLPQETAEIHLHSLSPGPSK
T7 sequence (Q9NYY3 whole entry): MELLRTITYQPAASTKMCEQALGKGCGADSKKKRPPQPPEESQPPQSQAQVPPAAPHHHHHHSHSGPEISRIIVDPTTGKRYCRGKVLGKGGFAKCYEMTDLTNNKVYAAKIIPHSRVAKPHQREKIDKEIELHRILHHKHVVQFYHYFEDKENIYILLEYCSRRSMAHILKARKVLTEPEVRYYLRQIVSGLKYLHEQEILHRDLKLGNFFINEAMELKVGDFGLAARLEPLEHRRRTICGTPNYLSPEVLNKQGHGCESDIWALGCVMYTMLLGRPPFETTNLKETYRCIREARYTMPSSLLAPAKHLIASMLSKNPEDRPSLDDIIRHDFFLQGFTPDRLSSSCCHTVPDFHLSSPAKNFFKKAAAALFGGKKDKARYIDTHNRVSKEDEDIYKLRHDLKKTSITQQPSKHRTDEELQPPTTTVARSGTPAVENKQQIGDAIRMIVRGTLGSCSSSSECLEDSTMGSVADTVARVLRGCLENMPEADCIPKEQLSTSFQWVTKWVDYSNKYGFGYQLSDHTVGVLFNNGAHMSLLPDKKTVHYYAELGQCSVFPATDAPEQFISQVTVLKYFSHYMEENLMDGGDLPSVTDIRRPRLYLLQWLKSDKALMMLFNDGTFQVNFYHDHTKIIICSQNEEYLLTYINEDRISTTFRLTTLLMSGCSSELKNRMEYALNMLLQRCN
T4 sequence (P45983 whole entry, canonical isoform): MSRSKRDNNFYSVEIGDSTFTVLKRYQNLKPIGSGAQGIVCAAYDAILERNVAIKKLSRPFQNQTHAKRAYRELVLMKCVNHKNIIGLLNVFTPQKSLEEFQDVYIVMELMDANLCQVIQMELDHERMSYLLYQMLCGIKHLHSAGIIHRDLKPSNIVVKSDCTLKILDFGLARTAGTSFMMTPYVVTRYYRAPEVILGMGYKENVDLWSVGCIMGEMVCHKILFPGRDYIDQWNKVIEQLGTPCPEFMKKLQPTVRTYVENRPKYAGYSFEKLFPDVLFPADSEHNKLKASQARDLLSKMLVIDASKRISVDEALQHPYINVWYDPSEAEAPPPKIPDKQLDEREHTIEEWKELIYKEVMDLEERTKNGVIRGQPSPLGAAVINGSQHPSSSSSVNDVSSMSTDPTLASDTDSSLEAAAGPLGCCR
T3 sequence (P14616 whole entry): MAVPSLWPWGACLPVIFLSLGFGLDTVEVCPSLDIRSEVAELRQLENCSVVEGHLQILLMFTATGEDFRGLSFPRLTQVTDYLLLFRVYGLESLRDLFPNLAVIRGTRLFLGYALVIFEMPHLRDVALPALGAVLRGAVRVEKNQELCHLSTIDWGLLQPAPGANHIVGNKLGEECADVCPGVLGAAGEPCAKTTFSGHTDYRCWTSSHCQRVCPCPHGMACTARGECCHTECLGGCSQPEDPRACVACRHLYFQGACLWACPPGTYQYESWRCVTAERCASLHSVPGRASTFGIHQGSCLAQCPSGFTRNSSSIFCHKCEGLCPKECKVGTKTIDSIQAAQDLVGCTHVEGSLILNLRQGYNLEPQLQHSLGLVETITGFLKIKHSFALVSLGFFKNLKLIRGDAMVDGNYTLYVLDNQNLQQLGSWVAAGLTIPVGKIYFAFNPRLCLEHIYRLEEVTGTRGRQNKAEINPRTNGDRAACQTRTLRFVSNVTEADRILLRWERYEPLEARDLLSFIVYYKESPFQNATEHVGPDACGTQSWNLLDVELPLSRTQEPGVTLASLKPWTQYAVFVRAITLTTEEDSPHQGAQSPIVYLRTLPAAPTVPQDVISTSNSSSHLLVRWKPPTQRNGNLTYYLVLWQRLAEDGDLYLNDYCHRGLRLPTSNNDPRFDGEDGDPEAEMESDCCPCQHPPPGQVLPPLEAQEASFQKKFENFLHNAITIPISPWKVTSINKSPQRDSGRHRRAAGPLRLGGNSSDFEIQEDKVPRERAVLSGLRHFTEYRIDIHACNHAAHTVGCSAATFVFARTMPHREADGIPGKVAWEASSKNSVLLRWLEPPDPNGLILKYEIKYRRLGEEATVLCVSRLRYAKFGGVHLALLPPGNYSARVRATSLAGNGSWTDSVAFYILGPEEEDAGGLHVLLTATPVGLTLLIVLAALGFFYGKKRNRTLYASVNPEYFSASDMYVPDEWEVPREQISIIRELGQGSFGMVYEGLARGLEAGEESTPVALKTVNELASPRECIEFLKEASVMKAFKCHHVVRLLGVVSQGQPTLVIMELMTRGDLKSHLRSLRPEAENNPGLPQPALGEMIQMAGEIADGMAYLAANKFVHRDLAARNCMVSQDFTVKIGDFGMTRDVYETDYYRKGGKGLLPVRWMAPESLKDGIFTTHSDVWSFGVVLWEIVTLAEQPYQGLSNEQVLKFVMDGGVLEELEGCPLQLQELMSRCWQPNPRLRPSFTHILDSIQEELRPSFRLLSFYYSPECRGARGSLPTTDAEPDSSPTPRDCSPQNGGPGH
T2 sequence (Q9P1W9 whole entry): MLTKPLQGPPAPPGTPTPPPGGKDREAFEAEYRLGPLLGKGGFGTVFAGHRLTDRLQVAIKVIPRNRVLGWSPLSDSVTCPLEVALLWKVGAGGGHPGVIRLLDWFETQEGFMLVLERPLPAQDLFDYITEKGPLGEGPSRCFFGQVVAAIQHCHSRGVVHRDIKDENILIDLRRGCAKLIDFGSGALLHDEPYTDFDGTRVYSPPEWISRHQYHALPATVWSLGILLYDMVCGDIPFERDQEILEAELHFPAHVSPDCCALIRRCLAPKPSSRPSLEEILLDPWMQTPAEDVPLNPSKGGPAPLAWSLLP
T6 sequence (O15530 whole entry): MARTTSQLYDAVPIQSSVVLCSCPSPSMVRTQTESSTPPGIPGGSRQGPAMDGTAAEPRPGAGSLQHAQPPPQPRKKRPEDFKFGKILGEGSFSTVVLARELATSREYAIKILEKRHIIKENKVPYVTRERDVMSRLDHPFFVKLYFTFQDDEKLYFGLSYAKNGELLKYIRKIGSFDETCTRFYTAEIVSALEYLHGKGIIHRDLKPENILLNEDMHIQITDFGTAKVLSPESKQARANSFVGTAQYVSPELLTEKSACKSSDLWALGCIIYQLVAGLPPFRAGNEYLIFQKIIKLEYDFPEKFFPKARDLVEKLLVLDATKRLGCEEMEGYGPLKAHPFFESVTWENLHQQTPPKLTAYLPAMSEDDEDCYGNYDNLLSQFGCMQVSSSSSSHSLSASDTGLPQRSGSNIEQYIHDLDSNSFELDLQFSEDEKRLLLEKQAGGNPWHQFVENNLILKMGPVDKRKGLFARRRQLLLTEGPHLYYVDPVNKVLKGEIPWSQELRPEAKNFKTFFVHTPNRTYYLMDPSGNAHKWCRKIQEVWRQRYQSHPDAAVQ
T5 sequence (Q13043 whole entry): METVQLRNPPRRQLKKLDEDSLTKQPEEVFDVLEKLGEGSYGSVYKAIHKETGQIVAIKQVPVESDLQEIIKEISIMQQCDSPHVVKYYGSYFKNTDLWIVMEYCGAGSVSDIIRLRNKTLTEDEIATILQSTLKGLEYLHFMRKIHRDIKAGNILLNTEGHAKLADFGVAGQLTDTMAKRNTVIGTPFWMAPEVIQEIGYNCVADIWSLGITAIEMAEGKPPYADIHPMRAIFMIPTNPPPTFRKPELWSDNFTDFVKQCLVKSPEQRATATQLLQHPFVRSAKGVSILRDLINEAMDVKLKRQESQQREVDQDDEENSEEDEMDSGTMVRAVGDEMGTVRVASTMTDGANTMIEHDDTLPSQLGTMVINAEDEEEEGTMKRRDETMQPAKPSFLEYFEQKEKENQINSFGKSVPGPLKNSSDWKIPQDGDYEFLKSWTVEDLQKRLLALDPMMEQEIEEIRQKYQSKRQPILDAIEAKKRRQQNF
Chain of NLK (Q9UBE8 whole entry): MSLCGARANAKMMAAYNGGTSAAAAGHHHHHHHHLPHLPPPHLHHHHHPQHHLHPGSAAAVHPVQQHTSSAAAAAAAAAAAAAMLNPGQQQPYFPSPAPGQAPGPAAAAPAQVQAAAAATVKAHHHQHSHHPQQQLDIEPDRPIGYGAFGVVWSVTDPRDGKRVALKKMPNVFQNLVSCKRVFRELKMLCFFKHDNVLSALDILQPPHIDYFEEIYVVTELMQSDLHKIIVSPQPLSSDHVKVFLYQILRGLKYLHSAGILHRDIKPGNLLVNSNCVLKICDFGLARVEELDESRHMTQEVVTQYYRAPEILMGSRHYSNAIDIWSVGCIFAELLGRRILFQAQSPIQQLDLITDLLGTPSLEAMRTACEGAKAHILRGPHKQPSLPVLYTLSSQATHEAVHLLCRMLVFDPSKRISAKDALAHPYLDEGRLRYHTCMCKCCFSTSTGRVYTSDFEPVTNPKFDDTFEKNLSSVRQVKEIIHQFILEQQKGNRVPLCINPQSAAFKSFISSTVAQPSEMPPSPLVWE

On to `Oc1ccc(/C=C/c2cc(O)cc(O)c2)cc1` [Res, resveratrol], for which the “in vitro kinase screen (Upstate KinaseProfiler), single dose 20 μM” value at Pim-1 [1] is “Jak2, NLK, p70 S6 kinase (S6K1), Pim-1, and Pim-2 emerged as potential targets of resveratrol”; at Pim-2, “Jak2, NLK, p70 S6 kinase (S6K1), Pim-1, and Pim-2 emerged as potential targets of resveratrol”; at NLK, “Jak2, NLK, p70 S6 kinase (S6K1), Pim-1, and Pim-2 emerged as potential targets of resveratrol”. In addition, the remaining activity at 20 µM at Flt1(h) was determined as 52 ± 1%; on IRR(h) it was 40%; at JNK1α1(h) it was 89 ± 5%; on MST1(h) it was 75 ± 6%; on PAK4(h), 103 ± 4%; at PDK1(h), 108 ± 7%. Also, the remaining activity at 20 µM stood at 6 ± 2% on Pim-1 [2] and 81 ± 3% on Snk(h).
